Data set [1] relates to NC/Nga mice (models for atopic dermatitis). Briefly: Test Example 4: anti-atopic dermatitis test, NC/Nga mice, picryl chloride hapten challenge. The data set is classed as in vivo. The procedure: Next, test was conducted on the anti-atopic dermatitis effect of the yeast cell wall fraction. As a test specimen, NC/Nga mice (5.5 weeks old) were preliminarily raised for 2 weeks with solid foodstuff (CE-2, manufactured by Clea Japan, Inc.) and, after adaptation to the experimental environment, were used upon being separated into groups of 7 mice each. […] Hapten sensitization was conducted 1 week after the commencement of test foodstuff administration, and the initial (first) hapten challenge was conducted a week thereafter, and a hapten challenge was conducted for each elapsed week thereafter, and the final (eighth) hapten challenge was conducted […] after the commencement of test foodstuff administration. […] In the aforementioned anti-atopic dermatitis test, the clinical score and total plasma IgE level were measured with time. […] The clinical score was comprehensively evaluated in […] evaluation phases of score (0)none, (1)mild, (2)moderate, (3)severe, regarding the 5 symptoms of acomia of scalp; bleeding and erosion of scalp; bleeding and erosion of auricle portion; corpulence, edema, and purpura of auricle portion; and deformation and disappearance of auricle porition. […]

For data set [2], the system named is NC/Nga mice (model for delayed-type hypersensitivity). Briefly: Test Example 5: inhibition effect of delayed-type hypersensitivity, NC/Nga mice. The data set is classed as in vivo. The procedure:
The same test mice and test foodstuff as in Test Example 4 were used to conduct a test on the inhibition effect of delayed-type hypersensitivity. The NC/Nga mice, as described above, are known as a model for atopic dermatitis, but can also be used as a model for delayed-type hypersensitivity. The administration of test foodstuff to the test mice was continued until the end of the test. Hapten sensitization was conducted 1 week after the commencement of the foodstuff administration, hapten challenge was conducted 1 week thereafter upon measuring the thickening of the auricle portion prior to the challenge, and measurement of the thickening of the auricle portion 24 hours later was conducted once again. Hapten sensitization was conducted by applying picryl chloride 7% by weight ethanol solution 100 μl to the abdomen, and the hapten challenge was conducted by applying picryl chloride 1% by weight olive oil solution 10 μl to both faces of each auricle portion. The anti-inflammation effect was measured by seeking the edema ratio and tumidity from the aforementioned test results. […]

The mark [3] stands for this setting: after the completion of administration of the test foodstuff.

Consider `OC[C@H]1O[C@H](OC[C@H]2O[C@H](O[C@]3(CO)O[C@H](CO)[C@@H](O)[C@@H]3O)[C@H](O)[C@@H](O)[C@@H]2O)[C@H](O)[C@@H](O)[C@H]1O` [Raffinose], for which the entries for the “Final Weight, Mean” value in data set [1] (setting [3]) and in data set [2] (setting [3]) were 25.9 g and 24.2 g, respectively. Further, the Ingestion, Mean is 4.05 g/day in data set [1] (daily foodstuff ingestion amount, anti-atopic dermatitis test) and 4.2 g/day in data set [2] (daily foodstuff ingestion amount, delayed-type hypersensitivity test).

The record behind these values is US20020155126A1, “Pharmacological composition containing yeast cell wall fraction” (priority 2001, published 2002).
